Results as given in patent US8192962B2, “Processes for detecting toxic substances” (Daikin Industries, Ltd., priority 2001, dated 2012).

Test system: Energy system protein genes
Experiment: DNA chip mRNA expression in yeast, energy system protein genes (Table 4)
Type: cell-based, Saccharomyces cerevisiae S288C
In short: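 Value is the scanned fluorescence intensity ratio of exposed versus chemical-free cells. Log-phase S288C yeast in YPD at 25° C. received one toxic substance for two hours, dosed to slow growth without killing; Cy3/Cy5-labeled cDNA from oligo-dT-purified mRNA was hybridized to a whole-genome chip at 65° C.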

Na2As [(1)]
The level of expressed mRNA in the presence of chemical substance/The level of expressed mRNA in the absence of chemical substance (yeast gene YAL060W): 1.1
The level of expressed mRNA in the presence of chemical substance/The level of expressed mRNA in the absence of chemical substance (yeast gene YBL058W, cells incubated two hours with the chemical substance): 0.9
The level of expressed mRNA in the presence of chemical substance/The level of expressed mRNA in the absence of chemical substance (yeast gene YBL099W, cells incubated two hours with the chemical substance): 0.8
The level of expressed mRNA in the presence of chemical substance/The level of expressed mRNA in the absence of chemical substance (yeast gene YBR001C, cells incubated two hours with the chemical substance): 0.9
The level of expressed mRNA in the presence of chemical substance/The level of expressed mRNA in the absence of chemical substance (yeast gene YBR185C, cells incubated two hours with the chemical substance): 1.5
The level of expressed mRNA in the presence of chemical substance/The level of expressed mRNA in the absence of chemical substance (yeast gene YBR221C, cells incubated two hours with the chemical substance): 0.8
The level of expressed mRNA in the presence of chemical substance/The level of expressed mRNA in the absence of chemical substance (yeast gene YCL040W): 0.9
The level of expressed mRNA in the presence of chemical substance/The level of expressed mRNA in the absence of chemical substance (yeast gene YCR012W): 1.2
The level of expressed mRNA in the presence of chemical substance/The level of expressed mRNA in the absence of chemical substance (yeast gene YCR046C, cells incubated two hours with the chemical substance): 1.0
The level of expressed mRNA in the presence of chemical substance/The level of expressed mRNA in the absence of chemical substance (yeast gene YCR105W, cells incubated two hours with the chemical substance): 2.2
The level of expressed mRNA in the presence of chemical substance/The level of expressed mRNA in the absence of chemical substance (yeast gene YDL021W): 5.1
The level of expressed mRNA in the presence of chemical substance/The level of expressed mRNA in the absence of chemical substance (yeast gene YDL067C, cells incubated two hours with the chemical substance): 1.8
The level of expressed mRNA in the presence of chemical substance/The level of expressed mRNA in the absence of chemical substance (yeast gene YDL078C, cells incubated two hours with the chemical substance): 0.7
The level of expressed mRNA in the presence of chemical substance/The level of expressed mRNA in the absence of chemical substance (yeast gene YDL107W, cells incubated two hours with the chemical substance): 1.3
The level of expressed mRNA in the presence of chemical substance/The level of expressed mRNA in the absence of chemical substance (yeast gene YDL174C): 0.9
The level of expressed mRNA in the presence of chemical substance/The level of expressed mRNA in the absence of chemical substance (yeast gene YDL181W, cells incubated two hours with the chemical substance): 1.4
The level of expressed mRNA in the presence of chemical substance/The level of expressed mRNA in the absence of chemical substance (yeast gene YDR001C): 1.0
The level of expressed mRNA in the presence of chemical substance/The level of expressed mRNA in the absence of chemical substance (yeast gene YDR050C, cells incubated two hours with the chemical substance): 1.9
The level of expressed mRNA in the presence of chemical substance/The level of expressed mRNA in the absence of chemical substance (yeast gene YDR079W, cells incubated two hours with the chemical substance): 1.3
The level of expressed mRNA in the presence of chemical substance/The level of expressed mRNA in the absence of chemical substance (yeast gene YDR178W, cells incubated two hours with the chemical substance): 2.0
The level of expressed mRNA in the presence of chemical substance/The level of expressed mRNA in the absence of chemical substance (yeast gene YDR231C): 1.1
The level of expressed mRNA in the presence of chemical substance/The level of expressed mRNA in the absence of chemical substance (yeast gene YDR298C, cells incubated two hours with the chemical substance): 1.3
The level of expressed mRNA in the presence of chemical substance/The level of expressed mRNA in the absence of chemical substance (yeast gene YDR377W, cells incubated two hours with the chemical substance): 1.3
The level of expressed mRNA in the presence of chemical substance/The level of expressed mRNA in the absence of chemical substance (yeast gene YDR529C, cells incubated two hours with the chemical substance): 1.8
The level of expressed mRNA in the presence of chemical substance/The level of expressed mRNA in the absence of chemical substance (yeast gene YEL024W, cells incubated two hours with the chemical substance): 1.5
The level of expressed mRNA in the presence of chemical substance/The level of expressed mRNA in the absence of chemical substance (yeast gene YEL039C, cells incubated two hours with the chemical substance): 1.1
The level of expressed mRNA in the presence of chemical substance/The level of expressed mRNA in the absence of chemical substance (yeast gene YER178W): 0.8
The level of expressed mRNA in the presence of chemical substance/The level of expressed mRNA in the absence of chemical substance (yeast gene YFL057C): 20.9
The level of expressed mRNA in the presence of chemical substance/The level of expressed mRNA in the absence of chemical substance (yeast gene YFR053C): 1.8
The level of expressed mRNA in the presence of chemical substance/The level of expressed mRNA in the absence of chemical substance (yeast gene YGL018C, cells incubated two hours with the chemical substance): 1.5
The level of expressed mRNA in the presence of chemical substance/The level of expressed mRNA in the absence of chemical substance (yeast gene YGL062W): 0.6
The level of expressed mRNA in the presence of chemical substance/The level of expressed mRNA in the absence of chemical substance (yeast gene YGL187C, cells incubated two hours with the chemical substance): 1.5
The level of expressed mRNA in the presence of chemical substance/The level of expressed mRNA in the absence of chemical substance (yeast gene YGL191W, cells incubated two hours with the chemical substance): 2.3
The level of expressed mRNA in the presence of chemical substance/The level of expressed mRNA in the absence of chemical substance (yeast gene YGL205W, cells incubated two hours with the chemical substance): 1.0
The level of expressed mRNA in the presence of chemical substance/The level of expressed mRNA in the absence of chemical substance (yeast gene YGL256W, cells incubated two hours with the chemical substance): 0.9
The level of expressed mRNA in the presence of chemical substance/The level of expressed mRNA in the absence of chemical substance (yeast gene YGR043C): 2.6
The level of expressed mRNA in the presence of chemical substance/The level of expressed mRNA in the absence of chemical substance (yeast gene YGR062C, cells incubated two hours with the chemical substance, 25° C., YPD medium): 0.9
The level of expressed mRNA in the presence of chemical substance/The level of expressed mRNA in the absence of chemical substance (yeast gene YGR087C, cells incubated two hours with the chemical substance): 1.0
The level of expressed mRNA in the presence of chemical substance/The level of expressed mRNA in the absence of chemical substance (yeast gene YGR174C, cells incubated two hours with the chemical substance): 1.1
The level of expressed mRNA in the presence of chemical substance/The level of expressed mRNA in the absence of chemical substance (yeast gene YGR192C): 1.4
The level of expressed mRNA in the presence of chemical substance/The level of expressed mRNA in the absence of chemical substance (yeast gene YGR244C): 1.0
The level of expressed mRNA in the presence of chemical substance/The level of expressed mRNA in the absence of chemical substance (yeast gene YGR254W): 1.2
The level of expressed mRNA in the presence of chemical substance/The level of expressed mRNA in the absence of chemical substance (yeast gene YHR179W): 3.3
The level of expressed mRNA in the presence of chemical substance/The level of expressed mRNA in the absence of chemical substance (yeast gene YIL160C): 0.8
The level of expressed mRNA in the presence of chemical substance/The level of expressed mRNA in the absence of chemical substance (yeast gene YIR031C, cells incubated two hours with the chemical substance): 0.9
The level of expressed mRNA in the presence of chemical substance/The level of expressed mRNA in the absence of chemical substance (yeast gene YJL052W): 1.6
The level of expressed mRNA in the presence of chemical substance/The level of expressed mRNA in the absence of chemical substance (yeast gene YJL121C, cells incubated two hours with the chemical substance): 1.0
The level of expressed mRNA in the presence of chemical substance/The level of expressed mRNA in the absence of chemical substance (yeast gene YJL166W, cells incubated two hours with the chemical substance): 2.1
The level of expressed mRNA in the presence of chemical substance/The level of expressed mRNA in the absence of chemical substance (yeast gene YJL216C, cells incubated two hours with the chemical substance): 1.1
The level of expressed mRNA in the presence of chemical substance/The level of expressed mRNA in the absence of chemical substance (yeast gene YJR009C): 1.1
